Measured values from BigSolDB 2.1.

Settings: in water

Row | SMILES | solubility (mole fraction) (298.15 K) | solubility (mole fraction) (308.15 K) | solubility (mole fraction) (323.15 K) | solubility (mole fraction) (303.15 K) | solubility (mole fraction) (313.15 K) | solubility (mole fraction) (318.15 K)
1 | Cc1ccc(C)cc1 | 2.62e-05 | 3.07e-05 | 3.65e-05 | – | – | –
2 | C=CCc1ccc(O)c(OC)c1 | 0.000228 | 0.000254 | 0.000312 | 0.00023 | 0.000254 | 0.000286
3 | CC(C)=CCCC(C)CCO (stereo not drawn) | 0.000218 | 0.000187 | 0.000308 | 0.000187 | 0.000208 | 0.000249
4 | Cc1ccccc1 | 0.000113 | 0.000118 | 0.000126 | – | 0.00012 | –
5 | Cc1ccc(C(C)C)cc1O | 0.000144 | 0.000164 | 0.000172 | 0.000155 | 0.000169 | 0.00017

Other lines, results leading:

Row | solubility (mole fraction) (298.15 K) | solubility (mole fraction) (308.15 K) | solubility (mole fraction) (323.15 K) | solubility (mole fraction) (303.15 K) | solubility (mole fraction) (313.15 K) | solubility (mole fraction) (318.15 K) | SMILES
6 | 0.000181 | 0.000472 | 0.00111 | 0.000332 | 0.000592 | 0.000844 | C=CC(C)(O)CCC=C(C)C (stereo not drawn)
7 | 0.000103 | 0.000375 | 0.00127 | 0.000139 | 0.000643 | 0.000922 | CC(C)=CCC/C(C)=C/CO
8 | 4.8e-06 | 9.9e-06 | 1.89e-05 | 6.9e-06 | 1.24e-05 | 1.51e-05 | Cc1ccc(C(C)C)cc1
